We go through 12 compounds from PubChem BioAssay (NCI).

Several values for one entry are separate records, joined by “and”; a condition that tells them apart may be missing. Identical values can stand only once.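 Results reflect a 48-hour exposure of cells in 96-well plates to compound at five concentrations. Here, GI50 denotes the concentration required for 50% inhibition of growth. TGI denotes the concentration required for complete inhibition of growth.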

Test systems include TK-10 renal; CAKI-1 renal; DMS 273 small cell lung; SF-268 CNS; M19-MEL melanoma; NCI-H460 lung; MALME-3M melanoma; RXF 393 renal; PC-3 prostate; MCF7 breast.
Holding throughout (assay): NCI tumour cell line growth inhibition, 48 h

For the compound `Cc1c(C(=O)/C=C/C=C/c2ccccc2)[n+](=O)c2ccccc2n1[O-]`, the TGI with TK-10 renal is greater than 100 µM; with CAKI-1 renal it was greater than 100 µM; in the experiment with DMS 273 small cell lung it was greater than 100 µM; in the experiment on SF-268 CNS it was greater than 100 µM; in the experiment on M19-MEL melanoma it was greater than 100 µM; with NCI-H460 lung, 61.5 µM. Moreover, the TGI in the experiment with MALME-3M melanoma is 66.8 µM.

Consider `CCc1cccc(C)c1N1C(=O)C(=O)C(c2nc3ccccc3o2)C(=O)C1=O`, for which the TGI in the experiment with TK-10 renal, in the experiment with CAKI-1 renal, in the experiment on DMS 273 small cell lung, in the experiment on SF-268 CNS, in the experiment with M19-MEL melanoma and in the experiment on NCI-H460 lung was greater than 100 µM in each case. The compound also showed a TGI with MALME-3M melanoma greater than 100 µM.

In the case of `COc1ccc(OC(C(=O)O)C(C)C)c2c1CCCC2=O` (stereo not given), the TGI in the experiment on TK-10 renal, in the experiment on CAKI-1 renal, in the experiment with DMS 273 small cell lung, with SF-268 CNS, with M19-MEL melanoma and in the experiment on NCI-H460 lung was greater than 100 µM in each case. The TGI in the experiment with MALME-3M melanoma is greater than 100 µM.

Turning to `O=C1OC(c2ccccc2)=N/C1=C\c1ccc(Oc2ccc(Cl)c(Cl)c2)cc1`, the TGI is greater than 100 µM in the experiment with TK-10 renal; 69.3 µM in the experiment on RXF 393 renal; 57.6 µM with SF-268 CNS; greater than 100 µM with M19-MEL melanoma; greater than 100 µM in the experiment with NCI-H460 lung; greater than 100 µM with MALME-3M melanoma.

Consider `O=C(O)c1cc(=O)c2c([nH]c3ccccc32)s1`, for which the TGI in the experiment on TK-10 renal, in the experiment on RXF 393 renal, with CAKI-1 renal, in the experiment on SF-268 CNS, with M19-MEL melanoma and in the experiment with NCI-H460 lung was greater than 100 µM throughout. In the experiment with MALME-3M melanoma, this compound returned a TGI greater than 100 µM.

In the case of `CN(Cc1ccc(C(F)(F)F)cc1)CC(O)C(=O)Nc1ccc(Cl)cc1` (stereo not given), the GI50 in the experiment with TK-10 renal is 1.74 µM; in the experiment on RXF 393 renal, 1.51 µM; with PC-3 prostate, 1.77 µM; in the experiment on CAKI-1 renal, 1.37 µM; in the experiment on MCF7 breast, 1.04 µM; with SF-268 CNS, 1.4 µM. For the same compound, the GI50 was 1.59 µM in the experiment with NCI-H460 lung and 1.37 µM with MALME-3M melanoma. Besides, the TGI came to 3.38 µM in the experiment on TK-10 renal; 2.96 µM in the experiment on RXF 393 renal; 3.21 µM with PC-3 prostate; 2.83 µM in the experiment on CAKI-1 renal; 2.36 µM with MCF7 breast; 2.95 µM in the experiment with SF-268 CNS. For the same compound, the values for the TGI in the experiment with NCI-H460 lung and with MALME-3M melanoma were 3.21 µM and 2.81 µM, respectively.

Regarding `Cc1cc(C)c2c(n1)sc1c(N)ncnc12`, the GI50 in the experiment with TK-10 renal was 10.1 µM; with RXF 393 renal, 8.72 µM; in the experiment on PC-3 prostate it was greater than 25 µM; in the experiment with CAKI-1 renal it was 15.8 µM; with MCF7 breast, greater than 25 µM; in the experiment with SF-268 CNS, greater than 25 µM. The GI50 with NCI-H460 lung and in the experiment with MALME-3M melanoma was greater than 25 µM each time. Further, the TGI in the experiment with TK-10 renal, with RXF 393 renal, in the experiment with PC-3 prostate, in the experiment on CAKI-1 renal, in the experiment with MCF7 breast and in the experiment on SF-268 CNS was greater than 25 µM each time. Further, the TGI in the experiment with NCI-H460 lung and with MALME-3M melanoma was greater than 25 µM in each case.

Turning to `O=C(/C=C/c1ccc(C(F)(F)F)cc1)Nc1ccc(C=C2c3ccccc3C(=O)c3ccccc32)cc1`, the GI50 in the experiment with TK-10 renal is 23.6 µM; in the experiment on RXF 393 renal, 8.26 µM; in the experiment with PC-3 prostate, 1.84 µM; with CAKI-1 renal, 3.39 µM; in the experiment with MCF7 breast, 4.54 µM; in the experiment on SF-268 CNS, 14.3 µM. For the same compound, the values for the GI50 with NCI-H460 lung and in the experiment on MALME-3M melanoma were 5.48 µM and 8.91 µM, respectively. Besides, the TGI in the experiment on TK-10 renal is greater than 100 µM; in the experiment on RXF 393 renal it was 60.4 µM; with PC-3 prostate it was greater than 100 µM; with CAKI-1 renal it was greater than 100 µM; in the experiment on MCF7 breast, greater than 100 µM; in the experiment with SF-268 CNS it was greater than 100 µM. Also, the TGI in the experiment with NCI-H460 lung and in the experiment on MALME-3M melanoma was greater than 100 µM each time.

As for `CCN(Cc1cc(F)ccc1F)c1ccc(CO)c(Cl)c1`, the GI50 with TK-10 renal is 0.0332 µM; in the experiment on RXF 393 renal it was 4.16 µM; in the experiment on PC-3 prostate, 13.4 µM; in the experiment on CAKI-1 renal it was 0.416 µM; with MCF7 breast it was 0.181 µM; in the experiment on SF-268 CNS, 17.3 µM. The GI50 in the experiment with NCI-H460 lung is 0.177 µM; with MALME-3M melanoma, 13.3 µM. The TGI in the experiment with TK-10 renal was determined as 0.199 µM; with RXF 393 renal, 17.3 µM; in the experiment on PC-3 prostate, 32.4 µM; in the experiment on CAKI-1 renal it was 5.1 µM; in the experiment on MCF7 breast it was 12.7 µM; in the experiment on SF-268 CNS, 40.6 µM. Further, the TGI in the experiment with NCI-H460 lung turned out to be 10.8 µM; with MALME-3M melanoma, 27.2 µM.

For `Cc1ccc(S(=O)(=O)N=NC=C2c3ccccc3N(O)c3ccccc32)cc1`, the TGI in the experiment with TK-10 renal was found to be 16.5 µM; in the experiment on CAKI-1 renal it was 23.8 µM; in the experiment with DMS 273 small cell lung, 15.1 µM; with SF-268 CNS, 19.5 µM; in the experiment on M19-MEL melanoma it was 23.4 µM; with NCI-H460 lung, 5.99 µM. For the same compound, the TGI in the experiment with MALME-3M melanoma was determined as 25.5 µM.

As to `Cc1nc2ccc(Br)cc2c(=O)n1-c1ccc(NC2OCC(O)C(O)C2O)cc1` (stereo not given), the TGI was greater than 100 µM in the experiment on TK-10 renal; 51.4 µM and > 100 µM in the experiment with RXF 393 renal; 86.9 µM and > 100 µM in the experiment with PC-3 prostate; 44.1 µM and > 100 µM in the experiment with CAKI-1 renal; 51.9 µM and > 100 µM in the experiment on MCF7 breast; greater than 100 µM with SF-268 CNS. For the same compound, the TGI in the experiment on NCI-H460 lung is greater than 100 µM; in the experiment with MALME-3M melanoma it was 65 µM and > 100 µM. Moreover, the GI50 was 32.1 µM and > 100 µM in the experiment with RXF 393 renal; 18.5 µM and > 100 µM in the experiment with PC-3 prostate; 20.3 µM and > 100 µM in the experiment with CAKI-1 renal; 20.8 µM and > 100 µM in the experiment with MCF7 breast; 47.2 µM and > 100 µM in the experiment with NCI-H460 lung; 23.2 µM and > 100 µM with MALME-3M melanoma.

For the compound `C1=C/COCc2cc(ccc2OCCN2CCCC2)Nc2nccc(n2)-c2ccc(o2)COC/1`, the GI50 in the experiment on TK-10 renal is 2.42 µM; in the experiment on RXF 393 renal, 0.397 µM; with PC-3 prostate it was 1.17 µM; in the experiment on CAKI-1 renal, 0.46 µM; in the experiment with MCF7 breast, 0.734 µM; in the experiment with SF-268 CNS, 1.69 µM. For the same compound, the GI50 in the experiment with NCI-H460 lung is 1.16 µM; in the experiment on MALME-3M melanoma it was 1.4 µM. Also, the TGI with TK-10 renal is 12 µM; in the experiment with RXF 393 renal, 1.64 µM; in the experiment on PC-3 prostate it was 21.4 µM; in the experiment with CAKI-1 renal, 3.28 µM; in the experiment on MCF7 breast it was 3.84 µM; in the experiment on SF-268 CNS it was 4.45 µM. Further, the figures for the TGI with NCI-H460 lung and with MALME-3M melanoma were 4.5 µM and 3.69 µM, respectively.
